Changes are numbered by the printed parent chain.
How the values were obtained:
P2X7R point mutant A166G = target: T1, P2X7R point mutant A166G (Homo sapiens, UniProt Q99572, A166G/I21V/M24R/N16P/N25R/Q22R/R20V/S23N/T19I/Y26L); test: Two-electrode voltage clamp of ATP-evoked currents in Xenopus oocytes; format: cell-based; details: EC90 ATP, mean ± S.E.M.
T1 construct: expressed in transfected cells; host or cells: Xenopus laevis oocytes (cRNA injection)
Procedure: (§1) Injected oocytes were stored at 16°C in ND96 buffer [in millimolar concentrations, NaCl 96, KCl 2, CaCl2 1.8, MgCl2 1, sodium pyruvate 5, and HEPES 5 (pH 7.6) supplemented with 50 μg/ml gentamycin and 50 μg/ml tetracycline]. Three to seven days postinjection two-electrode voltage clamp recordings were made from oocytes bathed in divalent-free ND96 buffer (in millimolar concentrations, NaCl 96, KCl 2, sodium pyruvate 5, HEPES 5, and 0.1 flufenamic acid, pH 7.6). Oocytes were voltage clamped at a holding potential of −60 mV with a GeneClamp500B amplifier (Molecular Devices).
(§2) Inhibition by the antagonists was expressed as the percentage of the peak current amplitude of an EC90 concentration of ATP recorded before the application of antagonist (ATP gave reproducible responses to ATP in the absence of antagonist). Inhibition curves were fitted with the Hill equation (variable slope) using GraphPad Prism 6 (GraphPad Software, San Diego, CA). […] Individual concentration-response curves were generated for individual experiments, and statistical analysis was carried out on the data generated. When shown in figures, the inhibition curves are fitted to the mean normalized data. […] Data are shown as mean ± S.E.M. In all cases n ≥ 3 for all data points.

P2X7R point mutant I310A = target: T2, P2X7R point mutant I310A (Homo sapiens, UniProt Q99572, I21V/I310A/M24R/N16P/N25R/Q22R/R20V/S23N/T19I/Y26L); test: as above; format: cell-based; details: EC90 ATP, mean ± S.E.M.
T2 construct: expressed in transfected cells; host or cells: Xenopus laevis oocytes (cRNA injection)
T2 sequence (Q99572 whole entry N16P/T19I/R20V/I21V/Q22R/S23N/M24R/N25R/Y26L/I310A): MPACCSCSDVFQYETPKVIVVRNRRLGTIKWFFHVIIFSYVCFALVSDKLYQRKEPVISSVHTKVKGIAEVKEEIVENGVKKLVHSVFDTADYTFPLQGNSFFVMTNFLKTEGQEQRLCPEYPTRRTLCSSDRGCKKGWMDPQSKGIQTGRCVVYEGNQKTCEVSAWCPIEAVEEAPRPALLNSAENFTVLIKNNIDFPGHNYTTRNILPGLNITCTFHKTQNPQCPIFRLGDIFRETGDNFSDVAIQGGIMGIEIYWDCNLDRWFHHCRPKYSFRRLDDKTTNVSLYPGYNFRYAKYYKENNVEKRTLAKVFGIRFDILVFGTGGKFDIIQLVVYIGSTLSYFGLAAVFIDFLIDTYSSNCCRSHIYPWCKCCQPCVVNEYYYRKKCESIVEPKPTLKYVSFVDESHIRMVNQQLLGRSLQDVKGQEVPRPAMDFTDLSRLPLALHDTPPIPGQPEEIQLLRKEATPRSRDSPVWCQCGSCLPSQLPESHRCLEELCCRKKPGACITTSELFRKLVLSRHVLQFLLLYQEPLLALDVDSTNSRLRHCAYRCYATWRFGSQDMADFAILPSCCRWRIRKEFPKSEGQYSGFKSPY
Procedure: as §1
(§3) Inhibition by the antagonists was expressed as the percentage of the peak current amplitude of an EC90 concentration of ATP recorded before the application of antagonist (ATP gave reproducible responses to ATP in the absence of antagonist). Inhibition curves were fitted with the Hill equation (variable slope) using GraphPad Prism 6 (GraphPad Software, San Diego, CA). […] Individual concentration-response curves were generated for individual experiments, and statistical analysis was carried out on the data generated. […] Data are shown as mean ± S.E.M. In all cases n ≥ 3 for all data points.

[1] = target: T3, chimeric P2X7/1 receptor 112–118 (Homo sapiens, UniProt Q99572, E112P/E115T/G113K/I21V/L118Y/M24R/N16P/N25R/Q22R/R117G/R20V/S23N/T19I/Y26L); test: cell-based; format: cell-based
T3 construct: expressed in transfected cells; host or cells: Xenopus laevis oocytes (cRNA injection)
T3 sequence (Q99572 whole entry N16P/T19I/R20V/I21V/Q22R/S23N/M24R/N25R/Y26L/E112P/G113K/E115T/R117G/L118Y): as the sequence (Q99572 whole entry N16P/T19I/R20V/I21V/Q22R/S23N/M24R/N25R/Y26L/I310A) above, with E112P, G113K, E115T, R117G, L118Y, A310I counted along it
Procedure: (§4) Additional point mutants were made using the QuikChange mutagenesis kit (Stratagene California, La Jolla, CA). The production of the correct mutations and absence of coding errors was determined by DNA sequencing (Automated ABI Sequencing Service, University of Leicester, UK). cRNA was generated for the mutants and 50 nl (50 ng) was injected into manually defoliculated stage V Xenopus laevis oocytes using an Inject+Matic microinjector (J.A. Gabay, Inject+Matic, Geneva, Switzerland). Injected oocytes were stored at 16°C in ND96 buffer [in millimolar concentrations, NaCl 96, KCl 2, CaCl2 1.8, MgCl2 1, sodium pyruvate 5, and HEPES 5 (pH 7.6) supplemented with 50 μg/ml gentamycin and 50 μg/ml tetracycline]. Three to seven days postinjection two-electrode voltage clamp recordings were made from oocytes bathed in divalent-free ND96 buffer (in millimolar concentrations, NaCl 96, KCl 2, sodium pyruvate 5, HEPES 5, and 0.1 flufenamic acid, pH 7.6). Oocytes were voltage clamped at a holding potential of −60 mV with a GeneClamp500B amplifier (Molecular Devices).
as §3

P2X7R point mutant F103A = target: T4, P2X7R point mutant F103A (Homo sapiens, UniProt Q99572, F103A/I21V/M24R/N16P/N25R/Q22R/R20V/S23N/T19I/Y26L); test: cell-based
T4 construct: expressed in transfected cells; host or cells: Xenopus laevis oocytes (cRNA injection)
T4 sequence (Q99572 whole entry N16P/T19I/R20V/I21V/Q22R/S23N/M24R/N25R/Y26L/F103A): as the sequence (Q99572 whole entry N16P/T19I/R20V/I21V/Q22R/S23N/M24R/N25R/Y26L/I310A) above, with F103A, A310I counted along it
Procedure: as §1, §2

[2] = target: T5, chimeric P2X7R with left flipper 280–284 of P2X4 (Homo sapiens, UniProt Q99572, D280T/I21V/K281R/M24R/N16P/N25R/N284E/Q22R/R20V/S23N/T19I/T282D/T283V/Y26L); test: cell-based
T5 sequence (Q99572 1-595 N16P/T19I/R20V/I21V/Q22R/S23N/M24R/N25R/Y26L/D280T/K281R/T282D/T283V/N284E): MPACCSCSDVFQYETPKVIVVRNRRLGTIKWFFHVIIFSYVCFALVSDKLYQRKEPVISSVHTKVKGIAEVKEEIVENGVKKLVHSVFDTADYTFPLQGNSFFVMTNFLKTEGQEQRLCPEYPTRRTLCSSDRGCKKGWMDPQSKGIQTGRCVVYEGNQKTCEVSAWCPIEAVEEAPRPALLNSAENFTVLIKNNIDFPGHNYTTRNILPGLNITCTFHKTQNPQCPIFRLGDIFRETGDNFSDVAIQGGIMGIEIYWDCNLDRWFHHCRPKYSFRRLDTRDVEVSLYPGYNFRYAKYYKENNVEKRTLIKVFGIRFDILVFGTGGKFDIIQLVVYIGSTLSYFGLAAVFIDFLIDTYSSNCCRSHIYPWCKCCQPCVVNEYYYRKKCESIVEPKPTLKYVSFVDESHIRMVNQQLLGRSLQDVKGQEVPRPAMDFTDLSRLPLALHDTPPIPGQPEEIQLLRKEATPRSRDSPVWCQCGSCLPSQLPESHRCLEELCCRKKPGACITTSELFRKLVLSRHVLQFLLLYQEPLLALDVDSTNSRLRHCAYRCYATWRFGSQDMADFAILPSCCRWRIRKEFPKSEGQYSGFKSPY
Procedure: (§5) The production of the correct mutations and absence of coding errors was determined by DNA sequencing (Automated ABI Sequencing Service, University of Leicester, UK). cRNA was generated for the mutants and 50 nl (50 ng) was injected into manually defoliculated stage V Xenopus laevis oocytes using an Inject+Matic microinjector (J.A. Gabay, Inject+Matic, Geneva, Switzerland). Injected oocytes were stored at 16°C in ND96 buffer [in millimolar concentrations, NaCl 96, KCl 2, CaCl2 1.8, MgCl2 1, sodium pyruvate 5, and HEPES 5 (pH 7.6) supplemented with 50 μg/ml gentamycin and 50 μg/ml tetracycline]. Three to seven days postinjection two-electrode voltage clamp recordings were made from oocytes bathed in divalent-free ND96 buffer (in millimolar concentrations, NaCl 96, KCl 2, sodium pyruvate 5, HEPES 5, and 0.1 flufenamic acid, pH 7.6). Oocytes were voltage clamped at a holding potential of −60 mV with a GeneClamp500B amplifier (Molecular Devices).
as §3

P2X7R point mutant T94V = target: T6, P2X7R point mutant T94V (Homo sapiens, UniProt Q99572, I21V/M24R/N16P/N25R/Q22R/R20V/S23N/T19I/T94V/Y26L); test: Two-electrode voltage clamp of ATP-evoked currents in Xenopus oocytes; format: cell-based; details: EC90 ATP, mean ± S.E.M.
T6 construct: expressed in transfected cells; host or cells: Xenopus laevis oocytes (cRNA injection)
T6 sequence (Q99572 whole entry N16P/T19I/R20V/I21V/Q22R/S23N/M24R/N25R/Y26L/T94V): as the sequence (Q99572 whole entry N16P/T19I/R20V/I21V/Q22R/S23N/M24R/N25R/Y26L/I310A) above, with T94V, A310I counted along it
Procedure: as §4
(§6) Inhibition by the antagonists was expressed as the percentage of the peak current amplitude of an EC90 concentration of ATP recorded before the application of antagonist (ATP gave reproducible responses to ATP in the absence of antagonist). […]

P2X7R point mutant F88W = target: T7, P2X7R point mutant F88W (Homo sapiens, UniProt Q99572, F88W/I21V/M24R/N16P/N25R/Q22R/R20V/S23N/T19I/Y26L); test: as above; format: cell-based; details: EC90 ATP, mean ± S.E.M.
T7 construct: expressed in transfected cells; host or cells: Xenopus laevis oocytes (cRNA injection)
T7 sequence (Q99572 whole entry N16P/T19I/R20V/I21V/Q22R/S23N/M24R/N25R/Y26L/F88W): as the sequence (Q99572 whole entry N16P/T19I/R20V/I21V/Q22R/S23N/M24R/N25R/Y26L/I310A) above, with F88W, A310I counted along it
Procedure: as §4, §6

P2X7R point mutant A91C = target: T8, P2X7R point mutant A91C (Homo sapiens, UniProt Q99572, A91C/I21V/M24R/N16P/N25R/Q22R/R20V/S23N/T19I/Y26L); test: cell-based
T8 construct: expressed in transfected cells; host or cells: Xenopus laevis oocytes (cRNA injection)
T8 sequence (Q99572 whole entry N16P/T19I/R20V/I21V/Q22R/S23N/M24R/N25R/Y26L/A91C): as the sequence (Q99572 whole entry N16P/T19I/R20V/I21V/Q22R/S23N/M24R/N25R/Y26L/I310A) above, with A91C, A310I counted along it
Procedure: as §1, §3

P2X7R point mutant Y93A = target: T9, P2X7R point mutant Y93A (Homo sapiens, UniProt Q99572, I21V/M24R/N16P/N25R/Q22R/R20V/S23N/T19I/Y26L/Y93A); test: Two-electrode voltage clamp of ATP-evoked currents in Xenopus oocytes; format: cell-based; details: EC90 ATP, mean ± S.E.M.
T9 construct: expressed in transfected cells; host or cells: Xenopus laevis oocytes (cRNA injection)
T9 sequence (Q99572 whole entry N16P/T19I/R20V/I21V/Q22R/S23N/M24R/N25R/Y26L/Y93A): as the sequence (Q99572 whole entry N16P/T19I/R20V/I21V/Q22R/S23N/M24R/N25R/Y26L/I310A) above, with Y93A, A310I counted along it
Procedure: as §1, §3

P2X7R point mutant S86A = target: T10, P2X7R point mutant S86A (Homo sapiens, UniProt Q99572, I21V/M24R/N16P/N25R/Q22R/R20V/S23N/S86A/T19I/Y26L); test: as above; format: cell-based; details: EC90 ATP, mean ± S.E.M.
T10 construct: expressed in transfected cells; host or cells: Xenopus laevis oocytes (cRNA injection)
T10 sequence (Q99572 whole entry N16P/T19I/R20V/I21V/Q22R/S23N/M24R/N25R/Y26L/S86A): as the sequence (Q99572 whole entry N16P/T19I/R20V/I21V/Q22R/S23N/M24R/N25R/Y26L/I310A) above, with S86A, A310I counted along it
Procedure: as §4, §6

[3] = target: T11, chimeric P2X7/1 receptor 89–94 (Homo sapiens, UniProt Q99572, I21V/M24R/N16P/N25R/Q22R/R20V/S23N/T19I/T90V/T94V/Y26L); test: as above; format: cell-based; details: for IC50: inhibition of EC90 ATP response
T11 construct: expressed in transfected cells; host or cells: Xenopus laevis oocytes (cRNA injection)
T11 sequence (Q99572 1-595 N16P/T19I/R20V/I21V/Q22R/S23N/M24R/N25R/Y26L/T90V/T94V): T5 sequence (Q99572 1-595 N16P/T19I/R20V/I21V/Q22R/S23N/M24R/N25R/Y26L/D280T/K281R/T282D/T283V/N284E) with T90V, T94V, T280D, R281K, D282T, V283T, E284N
Procedure: as §5, §3

P2X7R point mutant T308A = target: T12, P2X7R point mutant T308A (Homo sapiens, UniProt Q99572, I21V/M24R/N16P/N25R/Q22R/R20V/S23N/T19I/T308A/Y26L); test: as above; format: cell-based; details: EC90 ATP, mean ± S.E.M.
T12 construct: expressed in transfected cells; host or cells: Xenopus laevis oocytes (cRNA injection)
T12 sequence (Q99572 whole entry N16P/T19I/R20V/I21V/Q22R/S23N/M24R/N25R/Y26L/T308A): as the sequence (Q99572 whole entry N16P/T19I/R20V/I21V/Q22R/S23N/M24R/N25R/Y26L/I310A) above, with T308A, A310I counted along it
Procedure: as §1, §3

P2X7R point mutant Y295A = target: T13, P2X7R point mutant Y295A (Homo sapiens, UniProt Q99572, I21V/M24R/N16P/N25R/Q22R/R20V/S23N/T19I/Y26L/Y295A); test: as above; format: cell-based; details: EC90 ATP, mean ± S.E.M.
T13 construct: expressed in transfected cells; host or cells: Xenopus laevis oocytes (cRNA injection)
T13 sequence (Q99572 whole entry N16P/T19I/R20V/I21V/Q22R/S23N/M24R/N25R/Y26L/Y295A): as the sequence (Q99572 whole entry N16P/T19I/R20V/I21V/Q22R/S23N/M24R/N25R/Y26L/I310A) above, with Y295A, A310I counted along it
Procedure: as §4, §6

P2X7R point mutant P96A = target: T14, P2X7R point mutant P96A (Homo sapiens, UniProt Q99572, I21V/M24R/N16P/N25R/P96A/Q22R/R20V/S23N/T19I/Y26L); test: as above; format: cell-based; details: EC90 ATP, mean ± S.E.M.
T14 construct: expressed in transfected cells; host or cells: Xenopus laevis oocytes (cRNA injection)
T14 sequence (Q99572 whole entry N16P/T19I/R20V/I21V/Q22R/S23N/M24R/N25R/Y26L/P96A): as the sequence (Q99572 whole entry N16P/T19I/R20V/I21V/Q22R/S23N/M24R/N25R/Y26L/I310A) above, with P96A, A310I counted along it
Procedure: as §1, §3

P2X7R point mutant V312A = target: T15, P2X7R point mutant V312A (Homo sapiens, UniProt Q99572, I21V/M24R/N16P/N25R/Q22R/R20V/S23N/T19I/V312A/Y26L); test: cell-based
T15 construct: expressed in transfected cells; host or cells: Xenopus laevis oocytes (cRNA injection)
T15 sequence (Q99572 whole entry N16P/T19I/R20V/I21V/Q22R/S23N/M24R/N25R/Y26L/V312A): as the sequence (Q99572 whole entry N16P/T19I/R20V/I21V/Q22R/S23N/M24R/N25R/Y26L/I310A) above, with A310I, V312A counted along it
Procedure: as §1, §3

T1 sequence (Q99572 whole entry N16P/T19I/R20V/I21V/Q22R/S23N/M24R/N25R/Y26L/A166G): as the sequence (Q99572 whole entry N16P/T19I/R20V/I21V/Q22R/S23N/M24R/N25R/Y26L/I310A) above, with A166G, A310I counted along it

Row | SMILES | IC50 (P2X7R point mutant A166G) | IC50 (P2X7R point mutant I310A) | IC50 [1] | IC50 (P2X7R point mutant F103A) | IC50 [2] | IC50 (P2X7R point mutant T94V) | IC50 (P2X7R point mutant F88W) | IC50 (P2X7R point mutant A91C) | IC50 (P2X7R point mutant Y93A) | IC50 (P2X7R point mutant S86A) | inhibition at 10 µM ([3]; P2X7, read-out: inhibition of ATP responses) | IC50 ([3]; chimera 89–94) | IC50 (P2X7R point mutant T308A) | IC50 (P2X7R point mutant Y295A) | IC50 (P2X7R point mutant P96A) | IC50 (P2X7R point mutant V312A) | fold decrease in antagonist sensitivity/affinity relative to P2X7-2Nβ ([3]; chimera 89–94)
1 | Cl.Clc1cccc(-c2nnnn2Cc2cccnc2)c1Cl.O [A438079, 3-(5-(2,3-dichlorophenyl)-1H-tetrazol-1-yl)methyl pyridine hydrochloride hydrate] | 3980 nM | 6310 nM | 3160 nM | > 100000 nM | 31600 nM | > 100000 nM | 3160 nM | 20000 nM | 3980 nM | 1000 nM | 15.7% | > 100000 nM | 1000 nM | 2000 nM | 12600 nM | 5010 nM | –
2 | COc1ccc(CC(=O)NC(N=C(NC#N)Nc2cccc3ncccc23)C(C)(C)C)cc1OC (centres unmarked) [A740003, N-[1-[[(cyanoamino)(5-quinolinylamino)methylene]amino]-2,2-dimethylpropyl]-3,4-dimethoxybenzeneacetamide] | 316 nM | 126 nM | 251 nM | 631 nM | 794 nM | 398 nM | 158 nM | 2510 nM | 100 nM | 79.4 nM | – | 251 nM | 100 nM | 158 nM | 316 nM | 398 nM | ~3 fold
